Source: patent publication US6818643B1, “Neurotrophic bicyclic diamides” (Bristol-Myers Squibb Company, priority 1999, dated 2004)
Where two headings read alike, the source gives them in different places.

Target: FKBP12 (Homo sapiens, UniProt P62942)
Experiment: Fluorescence Polarization (FP) Assay of FKBP12 Binding
Conditions: for Ki: rotamase Ki derived from FP assay; for inhibition at 1 µM: read-out: % FP inhibition at 1 μM
Description: Fluorescence Polarization (FP) Assay of FKBP12 Binding
The buffer (25 mM HEPES, 100 mM sodium chloride, pH 7.5) with pre-mixed enzyme and fluorescent ligand is distributed into wells (190 μL/well). Inhibitors are added as 10 μL of a 10% dimethylsulfoxide solution in the same buffer. FP is measured with an excitation wavelength of 485 nm and emission wavelength of 520 nm.

[1] = Table 2, 1 μM compound, 100 nM fluorescent ligand, 200 nM FKBP12
[2] = Table 1, 1 μM compound, 100 nM fluorescent ligand, 200 nM FKBP12

Chain of FKBP12 (P62942 whole entry, species assumed): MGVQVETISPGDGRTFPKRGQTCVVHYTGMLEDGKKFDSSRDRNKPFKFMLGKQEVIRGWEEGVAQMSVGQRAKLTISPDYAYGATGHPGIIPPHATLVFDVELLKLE

Row | Compound | inhibition at 1 µM [1] [%] | inhibition at 1 µM [2] [%] | other results
1 | COc1cc(C(=O)C(=O)N2C3CCCC2C(=O)N(CCCCc2ccccc2)C3)cc(OC)c1OC (centres unmarked) [Example 19, 9-(3,4,5-Trimethoxyphenyl)oxalyl-3,9-diaza-3-(4-phenylbutyl)bicyclo[3.3.1]nonan-2-one] | – | – | Ki (Table 1): 85 nM
2 | COc1cc(C(=O)C(=O)N2C3CCCC2C(=O)N(CCCc2ccccc2)C3)cc(OC)c1OC (centres unmarked) [Example 18, 9-(3,4,5-Trimethoxyphenyl)oxalyl-3,9-diaza-3-(3-phenylpropyl)bicyclo[3.3.1]nonan-2-one] | – | – | Ki (Table 1): 60 nM
3 | COc1ccc(CCC(Cc2ccc(OC)c(OC)c2)CN2CC3CCCC(C2=O)N3C(=O)C(=O)c2cc(OC)c(OC)c(OC)c2)cc1OC (centres unmarked) [Example 25, 9-(3,4,5-Trimethoxyphenyl)oxalyl-3,9-diaza-3-[4-(3,4-dimethoxyphenyl)-2-((3,4-dimethoxy-phenyl)methyl)butyl]bicyclo-[3.3.1]nonan-2-one] | – | – | Ki (Table 2): 18 nM
4 | COc1cc(C(=O)C(=O)N2C3CCCC2C(=O)N(CC(CCCc2ccccc2)CCCc2ccccc2)C3)cc(OC)c1OC (centres unmarked) [Example 22, 9-(3,4,5-Trimethoxyphenyl)oxalyl-3,9-diaza-3-[5-phenyl-2-(3-phenylpropyl)pentyl]bicyclo[3.3.1]nonan-2-one] | 17 | – | –
5 | COc1cc(C(=O)C(=O)N2C3CCCC2C(=O)N(CCCCCc2ccccc2)C3)cc(OC)c1OC (centres unmarked) [Example 20, 9-(3,4,5-Trimethoxyphenyl)oxalyl-3,9-diaza-3-(5-phenylpentyl)bicyclo[3.3.1]nonan-2-one] | – | – | Ki (Table 1): 152 nM
6 | COc1ccc(CCCC(CCCc2ccccc2)N2CC3CCC(C2=O)N3C(=O)C(=O)c2cc(OC)c(OC)c(OC)c2)cc1OC [Example 9, (1S,5R)-8-(3,4,5-Trimethoxyphenyl)oxalyl-3,8-diaza-3-[4-(3,4-dimethoxyphenyl)-1-(3-phenylpropyl)butyl]bicyclo[3.2.1]octan-2-one] | 1 | – | –
7 | COc1cc(CCCC(CCCc2ccccc2)CN2CC3CCCC(C2=O)N3C(=O)C(=O)c2cc(OC)c(OC)c(OC)c2)cc(OC)c1OC (centres unmarked) [Example 23, 9-(3,4,5-Trimethoxyphenyl)oxalyl-3,9-diaza-3-[2-(3-phenylpropyl)-5-(3,4,5-trimethoxyphenyl)pentyl]bicyclo[3.3.1]-nonan-2-one] | 81 | – | Ki (Table 2): 44 nM
8 | COC(=O)C(=O)N1C2CCCC1C(=O)N(CCCc1cc(OC)c(OC)c(OC)c1)C2 (centres unmarked) [Example 40, Methyl-2-{3,9-diaza-2-oxo-3-[3-(3,4,5-trimethoxyphenyl)propyl]bicyclo[3.3.1]non-9-yl}-2-oxoacetate] | – | 6 | –
9 | CCC(C)(C)C(=O)C(=O)N1C2CCCC1C(=O)N(CCCc1cc(OC)c(OC)c(OC)c1)C2 (centres unmarked) [Example 41, 1-{3,9-Diaza-2-oxo-3-[3-(3,4,5-trimethoxyphenyl)propyl]bicyclo[3.3.1]non-9-yl}-3,3-dimethylpentane-1,2-dione] | – | 4 | –
10 | COc1ccc(CCCCN2CC3CCC(C2=O)N3C(=O)C(F)(F)c2cc(OC)c(OC)c(OC)c2)cc1OC [Example 29, (1S,5R)-8-(3,4,5-Trimethoxyphenyl)difluoroacetyl-3,8-diaza-3-[4-(3,4-dimethoxyphenyl)butyl]bicyclo[3.2.1]octan-2-one] | – | 8 | –
11 | COc1ccc(CCC(CCc2ccccc2)CN2C[C@H]3CC[C@@H](C2=O)N3C(=O)C(=O)c2cc(OC)c(OC)c(OC)c2)cc1OC (stereo partly drawn) [Example 14, (1S,5R)-8-(3,4,5-Trimethoxyphenyl)oxalyl-3,8-diaza-3-[4-(3,4-dimethoxyphenyl)-2-(2-phenylethyl)butyl]-bicyclo[3.2.1]octan-2-one] | – | – | Ki (Table 2): 169 nM
12 | COc1cc(CCCC(CCCc2ccccc2)CN2CC3CCCC(C2=O)N3C(=O)C(F)(F)c2cc(OC)c(OC)c(OC)c2)cc(OC)c1OC (centres unmarked) [Example 38, 9-(3,4,5-Trimethoxyphenyl)difluoroacetyl-3,9-diaza-3-[2-(3-phenylpropyl)-5-(3,4,5-trimethoxyphenyl)pentyl]bicyclo[3.3.1]-nonan-2-one] | 50 | – | –
13 | COc1ccc(CCN2CC3CCC(C2=O)N3C(=O)C(=O)c2cc(OC)c(OC)c(OC)c2)cc1OC [Example 2, (1S,5R)-8-(3,4,5-Trimethoxyphenyl)oxalyl-3,8-diaza-3-[2-(3,4-dimethoxyphenyl)ethyl]bicyclo[3.2.1]octan-2-one] | – | 3 | –
14 | COc1cc(CCCC(CCCc2ccccc2)CN2CC3CCC(C2=O)N3C(=O)C(F)(F)c2cc(OC)c(OC)c(OC)c2)cc(OC)c1OC [Example 34, (1S,5R)-8-(3,4,5-Trimethoxyphenyl)difluoroacetyl-3,8-diaza-3-[2-(3-phenylpropyl)-5-(3,4,5-trimethoxyphenyl)pentyl]bicyclo[3.2.1]octan-2-one] | 11 | – | –
15 | COc1ccc(CCC(Cc2ccc(OC)c(OC)c2)CN2C[C@H]3CC[C@@H](C2=O)N3C(=O)C(=O)c2cc(OC)c(OC)c(OC)c2)cc1OC (stereo partly drawn) [Example 13, (1S,5R)-8-(3,4,5-Trimethoxyphenyl)oxalyl-3,8-diaza-3-[4-(3,4-dimethoxyphenyl)-2-((3,4-dimethoxyphenyl)methyl)butyl]bicyclo[3.2.1]octan-2-one] | – | – | Ki (Table 2): 122 nM
16 | COc1cc(CCCC(CCCc2ccccc2)CN2CC3CCC(C2=O)N3C(=O)C(=O)c2cc(OC)c(OC)c(OC)c2)cc(OC)c1OC [Example 11, (1S,5R)-8-(3,4,5-Trimethoxyphenyl)oxalyl-3,8-diaza-3-[2-(3-phenylpropyl)-5-(3,4,5-trimethoxyphenyl)pentyl]bicyclo[3.2.1]octan-2-one] | 17 | – | –
17 | COc1cc(C(=O)C(=O)N2C3CCC2C(=O)N(CCCOc2cccnc2)C3)cc(OC)c1OC [Example 8, (1S,5R)-8-(3,4,5-Trimethoxyphenyl)oxalyl-3,8-diaza-3-(3-(3-pyridyloxy)propyl)-bicyclo[3.2.1]octan-2-one] | – | 98 | –
18 | COc1cc(CCCN2C[C@H]3CC[C@@H](C2=O)N3C(=O)C(=O)c2cc(OC)c(OC)c(OC)c2)cc(OC)c1OC [Example 6, (1S,5R)-8-(3,4,5-Trimethoxyphenyl)oxalyl-3,8-diaza-3-[3-(3,4,5-trimethoxyphenyl)propyl]bicyclo[3.2.1]octan-2-one] | – | 47 | Ki (Table 1): 242 nM
19 | COc1cc(C(F)(F)C(=O)N2C3CCC2C(=O)N(CCCc2ccccc2)C3)cc(OC)c1OC [Example 27, (1S,5R)-8-(3,4,5-Trimethoxyphenyl)difluoroacetyl-3,8-diaza-3-(3-phenylpropyl)bicyclo[3.2.1]octan-2-one] | – | 22 | –
20 | CCC(C)(C)C(=O)C(=O)N1C2CCC1C(=O)N(CCCc1cc(OC)c(OC)c(OC)c1)C2 (centres unmarked) [Example 39, 1-{3,8-Diaza-2-oxo-3-[3-(3,4,5-trimethoxyphenyl)propyl]bicyclo[3.2.1]oct-8-yl}-3,3-dimethylpentane-1,2-dione] | – | 4 | –
21 | COc1cc(C(F)(F)C(=O)N2C3CCC2C(=O)N(CCCCc2ccccc2)C3)cc(OC)c1OC [Example 32, (1S,5R)-8-(3,4,5-Trimethoxyphenyl)difluoroacetyl-3,8-diaza-3-(4-phenylbutyl)bicyclo-[3.2.1]octan-2-one] | – | 4 | –
22 | COc1cc(C(=O)C(=O)N2[C@@H]3CC[C@H]2C(=O)N(CCCc2ccccc2)C3)cc(OC)c1OC [Example 1, (1S,5R)-8-(3,4,5-Trimethoxyphenyl)oxalyl-3,8-diaza-3-(3-phenylpropyl)bicyclo[3.2.1]octan-2-one] | – | 34 | Ki (Table 1): 699 nM
23 | COc1ccc(CCCCN2CC3CCCC(C2=O)N3C(=O)C(F)(F)c2cc(OC)c(OC)c(OC)c2)cc1OC (centres unmarked) [Example 36, 9-(3,4,5-Trimethoxyphenyl)difluoroacetyl-3,9-diaza-3-[4-(3,4-dimethoxyphenyl)butyl]bicyclo[3.3.1]-nonan-2-one] | – | – | Ki (Table 1): 160 nM; inhibition at 1 µM: 61%
24 | COc1cc(C(F)(F)C(=O)N2C3CCCC2C(=O)N(CC(CCCc2ccccc2)CCCc2ccccc2)C3)cc(OC)c1OC (centres unmarked) [Example 37] | 4 | – | –
25 | COc1cc(CCCN2CC3CCCC(C2=O)N3C(=O)C(=O)c2cc(OC)c(OC)c(OC)c2)cc(OC)c1OC (centres unmarked) [Example 15, 9-(3,4,5-Trimethoxyphenyl)oxalyl-3,9-diaza-3-[3-(3,4,5-trimethoxyphenyl)propyl]bicyclo[3.3.1]nonan-2-one] | – | 44 | Ki (Table 1): 100 nM
26 | COc1cc(C(=O)C(=O)N2C3CCC2C(=O)N(CC(CCCc2ccccc2)CCCc2ccccc2)C3)cc(OC)c1OC [Example 10, (1S,5R)-8-(3,4,5-Trimethoxyphenyl)oxalyl-3,8-diaza-3-[5-phenyl-2-(3-phenyl-propyl)pentyl]bicyclo[3.2.1]-octan-2-one] | 14 | – | –
27 | COc1ccc(CCCC(CCCc2ccc(OC)c(OC)c2)CN2CC3CCCC(C2=O)N3C(=O)C(=O)c2cc(OC)c(OC)c(OC)c2)cc1OC (centres unmarked) [Example 24, 9-(3,4,5-Trimethoxyphenyl)oxalyl-3,9-diaza-3-[5-(3,4-dimethoxyphenyl)-2-(3-(3,4-dimethoxy-phenyl)propyl)pentyl]bicyclo-[3.3.1]nonan-2-one] | – | – | Ki (Table 2): 21 nM
28 | COc1ccc(CCCN2CC3CCC(C2=O)N3C(=O)C(F)(F)c2cc(OC)c(OC)c(OC)c2)cc1OC [Example 28, (1S,5R)-8-(3,4,5-Trimethoxyphenyl)difluoroacetyl-3,8-diaza-3-[3-(3,4-dimethoxyphenyl)propyl]bicyclo[3.2.1]octan-2-one] | – | 13 | –
29 | COc1cc(C(F)(F)C(=O)N2C3CCC2C(=O)N(C(CCc2ccccc2)CCc2ccccc2)C3)cc(OC)c1OC [Example 30, (1S,5R)-8-(3,4,5-Trimethoxyphenyl)difluoroacetyl-3,8-diaza-3-[3-phenyl-1-(2-phenylethyl)propyl]bicyclo[3.2.1]octan-2-one] | 4 | – | –
30 | COc1ccc(CCCCN2CC3CCC(C2=O)N3C(=O)C(=O)c2cc(OC)c(OC)c(OC)c2)cc1OC [Example 4, (1S,5R)-8-(3,4,5-Trimethoxyphenyl)oxalyl-3,8-diaza-3-[4-(3,4-dimethoxyphenyl)butyl]bicyclo[3.2.1]octan-2-one] | – | 15 | –
